Drawing on PubChem BioAssay (NCI), this text covers TGI for eight compounds.

Some test systems named below: SF-539 CNS; U251 CNS; RPMI-8226 leukemia; OVCAR-3 ovarian; TK-10 renal; SF-268 CNS; SK-MEL-5 melanoma; UACC-257 melanoma; SK-MEL-2 melanoma; NCI-H522 lung; DMS 114 small cell lung; CAKI-1 renal; MOLT-4 leukemia; OVCAR-8 ovarian; NCI-H23 lung; SF-295 CNS; HL-60(TB) leukemia; SR leukemia.
What all share (assay): DTP human tumour cell line panel, 48 h

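Five concentrations, 48 hours, 96-well plates. Definition used: TGI = concentration required for complete inhibition of growth.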

For orientation: TGI means the concentration at which net growth stops. The low end stands for greater sensitivity of the cells, the high end for lower sensitivity of the cells. Turning to `O=C(O)c1cc(-c2ccccc2O)nc2ccccc12`, the TGI in the experiment with SF-539 CNS, in the experiment on U251 CNS, in the experiment with RPMI-8226 leukemia, with OVCAR-3 ovarian, in the experiment on TK-10 renal and with SF-268 CNS was greater than 100 µM each time. For the same compound, the TGI in the experiment with SK-MEL-5 melanoma, with UACC-257 melanoma, in the experiment with SK-MEL-2 melanoma, with NCI-H522 lung, in the experiment on DMS 114 small cell lung and with CAKI-1 renal was greater than 100 µM throughout. Also, the TGI with MOLT-4 leukemia, in the experiment on OVCAR-8 ovarian, in the experiment with NCI-H23 lung and in the experiment on SF-295 CNS was greater than 100 µM each time.

With `Cn1c(=O)c2c(nc(C[N+]3([O-])CCOCC3)n2C)n(C)c1=O`, the TGI in the experiment with SF-539 CNS, in the experiment with U251 CNS, with HL-60(TB) leukemia, in the experiment on RPMI-8226 leukemia, with OVCAR-3 ovarian and with TK-10 renal was greater than 100 µM in each case. The TGI in the experiment on SF-268 CNS, in the experiment on SK-MEL-5 melanoma, with UACC-257 melanoma, in the experiment with SK-MEL-2 melanoma, in the experiment with NCI-H522 lung and in the experiment with DMS 114 small cell lung was greater than 100 µM in each case. The TGI in the experiment with CAKI-1 renal, in the experiment with SR leukemia, with MOLT-4 leukemia, in the experiment on OVCAR-8 ovarian and with NCI-H23 lung was greater than 100 µM throughout.

Turning to `CCOC(OCC)c1ccc(/C=C/c2cc(OC)c(OC)c(OC)c2)cc1`, the TGI in the experiment with SF-539 CNS came out at 29.8 µM; in the experiment with U251 CNS, 32.2 µM; in the experiment on HL-60(TB) leukemia, 30.1 µM; in the experiment with RPMI-8226 leukemia it was 63 µM; in the experiment with OVCAR-3 ovarian, 38 µM; in the experiment on TK-10 renal, 82 µM. Moreover, the TGI in the experiment with SF-268 CNS was 71.8 µM; in the experiment with SK-MEL-5 melanoma it was 28.5 µM; in the experiment with UACC-257 melanoma, 51.2 µM; in the experiment on NCI-H522 lung, greater than 100 µM; with DMS 114 small cell lung, 50.2 µM; with CAKI-1 renal, 74.3 µM. Moreover, the results for the TGI in the experiment with OVCAR-8 ovarian and with SF-295 CNS were 76.3 µM and 40.4 µM, respectively.

For the compound `NC1=NC2(O)c3ccccc3C(=O)C2(O)N1` (configuration not stated), the TGI in the experiment with SF-539 CNS, with U251 CNS, in the experiment with HL-60(TB) leukemia, in the experiment with RPMI-8226 leukemia, with OVCAR-3 ovarian and in the experiment with TK-10 renal was greater than 100 µM throughout. For the same compound, the TGI in the experiment on SF-268 CNS, with SK-MEL-5 melanoma, in the experiment with UACC-257 melanoma, with SK-MEL-2 melanoma, in the experiment on NCI-H522 lung and in the experiment on DMS 114 small cell lung was greater than 100 µM in each case. Further, the total growth inhibition concentration (TGI) in the experiment on CAKI-1 renal, in the experiment on SR leukemia, in the experiment with MOLT-4 leukemia, in the experiment on OVCAR-8 ovarian, in the experiment on NCI-H23 lung and with SF-295 CNS was greater than 100 µM in each case.

Regarding `COc1ccc(/C=C2\N=C(c3ccccc3)N(Nc3nnc(NN4C(=O)/C(=C/c5ccc(OC)cc5)N=C4c4ccccc4)c4ccccc34)C2=O)cc1`, the TGI in the experiment on SF-539 CNS was greater than 100 µM; in the experiment with U251 CNS, greater than 100 µM; in the experiment on HL-60(TB) leukemia, 61.4 µM; in the experiment on RPMI-8226 leukemia, greater than 100 µM; in the experiment with SF-268 CNS, greater than 100 µM; in the experiment on SK-MEL-5 melanoma it was greater than 100 µM. The TGI in the experiment on UACC-257 melanoma is greater than 100 µM; in the experiment with NCI-H522 lung it was greater than 100 µM; in the experiment on DMS 114 small cell lung it was greater than 100 µM; with SR leukemia, 90.5 µM; with MOLT-4 leukemia, greater than 100 µM; with OVCAR-8 ovarian it was greater than 100 µM. Moreover, the concentration for total growth inhibition (TGI) in the experiment with NCI-H23 lung and in the experiment on SF-295 CNS was greater than 100 µM in each case.

`CC(=O)OC1OC2C(NC(=O)OC(C)(C)C)C1CC2(OCc1ccccc1)OCc1ccccc1` (configuration not stated): the TGI amounted to 33.8 µM in the experiment with SF-539 CNS; 32.4 µM in the experiment with U251 CNS; 35.2 µM in the experiment with HL-60(TB) leukemia; 43.3 µM with RPMI-8226 leukemia; 38.5 µM in the experiment on OVCAR-3 ovarian; 44.3 µM with TK-10 renal. The TGI with SF-268 CNS is greater than 100 µM; with SK-MEL-5 melanoma it was 33.1 µM; in the experiment with UACC-257 melanoma, 37.9 µM; in the experiment with SK-MEL-2 melanoma it was 38.9 µM; with NCI-H522 lung, 30.5 µM; in the experiment on DMS 114 small cell lung, 58 µM. The TGI in the experiment with CAKI-1 renal was greater than 100 µM; in the experiment on SR leukemia, greater than 100 µM; in the experiment on MOLT-4 leukemia, 62.9 µM; with OVCAR-8 ovarian, greater than 100 µM; in the experiment on NCI-H23 lung, 41.7 µM; in the experiment on SF-295 CNS, greater than 91.5 µM.

On to `O=C1C(Cl)C(c2ccc(Cl)cc2)N1n1cnc2ccccc2c1=O` (configuration not stated), for which the TGI in the experiment with U251 CNS, with HL-60(TB) leukemia, in the experiment on RPMI-8226 leukemia, in the experiment with OVCAR-3 ovarian, in the experiment with TK-10 renal and in the experiment with SF-268 CNS was greater than 100 µM in each case. Also, the TGI in the experiment with SK-MEL-5 melanoma, with UACC-257 melanoma, with SK-MEL-2 melanoma, in the experiment with NCI-H522 lung, with DMS 114 small cell lung and with CAKI-1 renal was greater than 100 µM throughout. The TGI with SR leukemia, in the experiment on MOLT-4 leukemia, in the experiment on OVCAR-8 ovarian, in the experiment with NCI-H23 lung and in the experiment with SF-295 CNS was greater than 100 µM throughout.

For the compound `COc1cccc(/C(C=O)=C(\Cl)c2ccc(OC)c(OC)c2)c1`, the TGI in the experiment on SF-539 CNS was 30.4 µM; with U251 CNS, 27.4 µM; in the experiment with HL-60(TB) leukemia, 20.7 µM; in the experiment on RPMI-8226 leukemia, 48.8 µM; in the experiment on OVCAR-3 ovarian it was 30.2 µM; with TK-10 renal, 73 µM. The TGI was determined as 25.3 µM in the experiment on SF-268 CNS; 25.3 µM with SK-MEL-5 melanoma; 29.3 µM in the experiment with UACC-257 melanoma; 42.8 µM in the experiment on SK-MEL-2 melanoma; 22.1 µM in the experiment on NCI-H522 lung; 30.5 µM in the experiment with DMS 114 small cell lung. Besides, the TGI was 45.1 µM with CAKI-1 renal; 82.1 µM in the experiment with SR leukemia; 42.5 µM in the experiment with MOLT-4 leukemia; 30.3 µM in the experiment on OVCAR-8 ovarian; 24.9 µM with NCI-H23 lung; 28.9 µM in the experiment with SF-295 CNS.
